Assay results published in the NIST ThermoML archive (doi:10.1016/j.tca.2006.05.019).
“And” between values parts separate entries of the source, which are not always exact repeats. Identical values can stand only once.

Assay: molar heat capacity at constant pressure
Details: 101.33 kPa, Crystal, Vacuum adiabatic calorimetry

O=P([O-])([O-])[O-].[Lu+3] [lutetium phosphate]
Details	molar heat capacity at constant pressure
6 K	0.0357 J/K/mol
6.51 K	0.0482 J/K/mol
7.08 K	0.04711 J/K/mol
7.62 K	0.06861 J/K/mol
8 K	0.0845 J/K/mol
8.12 K	0.1033 J/K/mol
8.6 K	0.1229 J/K/mol
9.16 K	0.1232 J/K/mol
9.76 K	0.1438 J/K/mol
10 K	0.165 J/K/mol
10.35 K	0.1797 J/K/mol
10.95 K	0.1984 J/K/mol
11.52 K	0.2437 J/K/mol
12 K	0.286 J/K/mol
12.05 K	0.2931 J/K/mol
12.7 K	0.351 J/K/mol
13.5 K	0.4239 J/K/mol
14 K	0.455 J/K/mol
14.29 K	0.5003 J/K/mol
15.07 K	0.5881 J/K/mol
15.96 K	0.7241 J/K/mol
16 K	0.676 J/K/mol
16.71 K	0.8304 J/K/mol
17.45 K	0.9728 J/K/mol
18 K	0.962 J/K/mol
18.21 K	1.085 J/K/mol
18.94 K	1.201 J/K/mol
19.66 K	1.318 J/K/mol
20 K	1.32 J/K/mol
21.37 K	1.733 J/K/mol
23.76 K	2.354 J/K/mol
25 K	2.54 J/K/mol
26.16 K	3.067 J/K/mol
28.57 K	3.861 J/K/mol
30 K	4.26 J/K/mol
30.99 K	4.819 J/K/mol
33.41 K	5.784 J/K/mol
35 K	6.39 J/K/mol
35.85 K	6.862 J/K/mol
38.3 K	7.989 J/K/mol
40 K	8.83 J/K/mol
40.76 K	9.131 J/K/mol
43.21 K	10.48 J/K/mol
45 K	11.45 J/K/mol
45.69 K	11.91 J/K/mol
48.16 K	13.16 J/K/mol
50 K	14.18 J/K/mol
50.64 K	14.44 J/K/mol
53.13 K	15.87 J/K/mol
55 K	16.93 J/K/mol
55.63 K	17.16 J/K/mol
58.13 K	18.55 J/K/mol
60 K	19.67 J/K/mol
60.65 K	19.95 J/K/mol
63.14 K	21.38 J/K/mol
65 K	22.38 J/K/mol
65.64 K	22.73 J/K/mol
68.13 K	23.87 J/K/mol
70 K	25.05 J/K/mol
70.62 K	25.39 J/K/mol
73.11 K	26.96 J/K/mol
75 K	27.68 J/K/mol
75.6 K	28.21 J/K/mol
78.1 K	29.35 J/K/mol
80 K	30.26 J/K/mol
80.6 K	30.69 J/K/mol
83.1 K	31.8 J/K/mol
83.67 K	31.97 J/K/mol
85 K	32.8 J/K/mol
87.39 K	33.75 J/K/mol
90 K	35.28 J/K/mol
91 K	35.61 J/K/mol
94.62 K	37.52 J/K/mol
95 K	37.72 J/K/mol
98.23 K	39.26 J/K/mol
100 K	40.1 J/K/mol
101.84 K	41.01 J/K/mol
105.45 K	42.73 J/K/mol
109.04 K	44.39 J/K/mol
110 K	44.74 J/K/mol
112.63 K	45.93 J/K/mol
116.21 K	47.44 J/K/mol
119.79 K	49.06 J/K/mol
120 K	49.17 J/K/mol
123.37 K	50.6 J/K/mol
126.95 K	52.07 J/K/mol
130 K	53.39 J/K/mol
130.52 K	53.52 J/K/mol
134.08 K	54.89 J/K/mol
134.32 K	54.86 J/K/mol
137.64 K	56.24 J/K/mol
137.89 K	56.62 J/K/mol
140 K	57.42 J/K/mol
141.14 K	57.72 J/K/mol
144.67 K	59.01 J/K/mol
148.2 K	60.39 J/K/mol
150 K	61.25 J/K/mol
151.73 K	61.98 J/K/mol
152.2 K	62.31 J/K/mol
155.77 K	63.71 J/K/mol
159.34 K	65.02 J/K/mol
160 K	64.87 J/K/mol
162.89 K	66.21 J/K/mol
166.44 K	67.34 J/K/mol
169.99 K	68.5 J/K/mol
170 K	68.32 J/K/mol
173.53 K	69.66 J/K/mol
177.02 K	70.76 J/K/mol
180 K	71.58 J/K/mol
180.54 K	71.85 J/K/mol
184.06 K	72.87 J/K/mol
187.57 K	73.85 J/K/mol
190 K	74.68 J/K/mol
191.08 K	75.02 J/K/mol
194.58 K	76.04 J/K/mol
198.07 K	77.09 J/K/mol
200 K	77.61 J/K/mol
201.56 K	78.14 J/K/mol
205.03 K	78.99 J/K/mol
208.5 K	79.97 J/K/mol
210 K	80.41 J/K/mol
211.96 K	80.72 J/K/mol
215.42 K	81.51 J/K/mol
218.87 K	82.45 J/K/mol
220 K	83.06 J/K/mol
222.31 K	83.48 J/K/mol
225.73 K	84.25 J/K/mol
229.14 K	85.1 J/K/mol
230 K	85.6 J/K/mol
233.68 K	86.38 J/K/mol
235.82 K	87.08 J/K/mol
237.13 K	87.2 J/K/mol
239.2 K	87.62 J/K/mol
240 K	88.01 J/K/mol
242.56 K	88.31 J/K/mol
245.94 K	89.1 J/K/mol
249.32 K	90.16 J/K/mol
250 K	90.31 J/K/mol
250.77 K	90.59 J/K/mol
254.14 K	91.42 J/K/mol
255.94 K	91.8 J/K/mol
259.22 K	92.4 J/K/mol
260 K	92.51 J/K/mol
260.67 K	92.92 J/K/mol
263.97 K	93.72 J/K/mol
267.27 K	94.37 J/K/mol
270 K	94.6 J/K/mol
270.55 K	94.95 J/K/mol
273.81 K	95.59 J/K/mol
277.04 K	96.19 J/K/mol
278.55 K	96.28 J/K/mol and 96.26 J/K/mol
280 K	96.61 J/K/mol
280.25 K	96.75 J/K/mol
281.69 K	96.92 J/K/mol and 96.9 J/K/mol
283.44 K	97.38 J/K/mol
284.59 K	97.37 J/K/mol
286.58 K	97.91 J/K/mol
287.72 K	97.96 J/K/mol
289.7 K	98.45 J/K/mol
290 K	98.53 J/K/mol
290.83 K	98.55 J/K/mol
292.79 K	99.14 J/K/mol
293.91 K	99.28 J/K/mol
295.89 K	99.69 J/K/mol
296.98 K	99.82 J/K/mol
298.92 K	100.3 J/K/mol
300 K	100.4 J/K/mol
300.03 K	100.5 J/K/mol
303.01 K	100.9 J/K/mol
306.01 K	101.4 J/K/mol
309.71 K	101.9 J/K/mol
310 K	102.1 J/K/mol
312.4 K	102.4 J/K/mol
315.23 K	102.9 J/K/mol
318.03 K	103.6 J/K/mol
320 K	103.8 J/K/mol
